Measured values from patent US11324743B2, “Treatment for the non alcoholic steatohepatitis and fibrosis” (METABOLYS, priority 2016, dated 2022).

Columns and labels:
[1] = test system: NASH mice (STAM model); assay: In vivo study 1 to assess effects on NASH (STAM model); parameters: species or system C57BL/6 mice
Source text: (§1) The study was made on STAM model.
(§2) Pathogen-free fourteen day-pregnant C57BL/6 mice have been obtained from Japan SLC, Inc. (Japan). NASH has been established in male mice by a single subcutaneous injection of streptozotocin (Sigma, USA) after birth and feeding with a high fat diet (CLEA Japan, Japan) ad libitum after four weeks of age (day 28±2). Mice have been randomized into three groups of ten mice at six weeks of age (day 42±2), and three groups of ten mice at nine weeks of age (day 63±2), in the days before the start of treatment. Individual body weights have been measured daily during the treatment period. Food consumption has been measured twice per week during the treatment period. Survival, clinical signs and behavior of mice have been monitored daily.
The NASH in vivo study had 3 arms:
(§3) Group 1 (Vehicle): Ten NASH mice have been orally administered the same vehicle (0.5% methyl cellulose in water) as the mice receiving compound (1).
Group 2 (Telmisartan): Five mice have been administered the same vehicle supplemented with Telmisartan at a dose of 100 mg/kg (in 0.5% methyl cellulose in water) once daily from six to nine (6 to 9) weeks of age.
Group 3 (compound (1)): Ten NASH mice have be orally administered vehicle supplemented with compound (1) at a dose of 100 mg/kg (in 0.5% methyl cellulose in water) once daily from six to nine (6 to 9) weeks of age. The assessed parameters and histological outcome measures are described below.
(§4) The following measurements have been conducted for both in vivo studies: • Individual liver weight • Individual body weight • Plasma ALT (Alanine AminoTransferase), AST (Aspartate AminoTransferase), triglyceride, and total cholesterol have been measured by FUJI DRI-CHEM (Fujifilm, Japan) • Liver triglyceride has been quantified by Triglyceride E-test kit (Wako, Japan) • Histological analyses for liver sections (according to routine methods) • HE (Hematoxylin Eosin) staining and estimation of NAFLD Activity score (NAS) […]

[2] = test system: NASH mice (STAM model); assay: In vivo study 2 to assess effects on fibrosis (STAM model); parameters: species or system C57BL/6 mice
Source text: as §1, §2
The fibrosis in vivo study had 3 arms:
as §3
Group 2 (Telmisartan): Five mice have been administered the same vehicle supplemented with Telmisartan at a dose of 100 mg/kg (in 0.5% methyl cellulose in water) once daily from nine to twelve (9 to 12) weeks of age.
Group 3 (compound (1)): Ten NASH mice have been orally administered vehicle supplemented with compound (1) at a dose of 100 mg/kg (in 0.5% methyl cellulose in water) once daily from nine to twelve (9 to 12) weeks of age. The assessed parameters and histological outcome measures are described below.
as §4

[3] = test system: STAM animal model; conditions: reference compound; cited from earlier work

Row | SMILES | amount of liver triglycerides (TG) ([1]; 100 mg/kg orally once daily from 6 to 9 weeks of age (FIG. 2)) | amount of plasma triglycerides (TG) ([1]; 100 mg/kg orally once daily from 6 to 9 weeks of age (FIG. 3)) | NAFLD activity score (NAS) ([1]; 100 mg/kg orally once daily from 6 to 9 weeks of age, in comparison to both vehicle and Telmisartan) | amount of liver triglycerides (TG) ([2]; 100 mg/kg orally once daily from 9 to 12 weeks of age (FIG. 2)) | amount of plasma triglycerides (TG) ([2]; 100 mg/kg orally once daily from 9 to 12 weeks of age (FIG. 3), effect especially in study 2) | NAFLD activity score (NAS) ([2]; 100 mg/kg orally once daily from 9 to 12 weeks of age, in comparison to both vehicle and Telmisartan) | activity to treat NASH and fibrosis [3]
1 | O=C(O)CCC(=O)c1ccc(OCCN2CCN(c3ccccn3)CC2)cc1 [Compound (1)] | reduction | reduction | significant reduction | reduction | reduction | significant reduction | –
2 | CCCc1nc2c(C)cc(-c3nc4ccccc4n3C)cc2n1Cc1ccc(-c2ccccc2C(=O)O)cc1 [Telmisartan] | – | – | – | – | – | – | active
